The test system of the assay is Nilaparvata lugens (Brown Plant Hopper). The experiment in a line: Nilaparvata lugens (Brown Plant Hopper) rice seedling spray test, mortality. The format is in vivo. Conditions: N3 nymphs, mortality 6-12 days after treatment. The procedure: Nilaparvata lugens (Brown Plant Hopper) Rice seedlings are treated with the diluted test solutions in a spray chamber. After drying, plants are infested with 20 N3 nymphs (2 replicates). 6-12 days after the treatment samples are checked for mortality

SMILES strings stand for the structures.

On to `Cc1cc(C2=NOC(c3cc(Cl)cc(Cl)c3)(C(F)(F)F)C2)ccc1C(=O)NC1CON(C)C1=O` (mixture of isomers) [Compound A1], for which the Control/% reads like this: (rate 12.5 ppm) 93%; (rate 25 ppm) 93%; (rate 50 ppm) 98%.
As to `Cc1cc(C2=NOC(c3cc(Cl)cc(Cl)c3)(C(F)(F)F)C2)ccc1C(=O)NC1CON(CC(F)(F)F)C1=O` (mixture of isomers) [Compound A2], the Control/% (rate 12.5 ppm) was determined as 80%, the Control/% (rate 25 ppm) was 98% and the Control/% (rate 50 ppm) is on record as 99%.
For `CCN1OCC(NC(=O)c2ccc(C3=NOC(c4cc(Cl)cc(Cl)c4)(C(F)(F)F)C3)cc2C)C1=O` (mixture of isomers) [Compound A4], in that order: 88%, 93% and 100%.
The corresponding values for `Cc1cc(C2=NOC(c3cc(Cl)cc(Cl)c3)(C(F)(F)F)C2)ccc1C(=O)NC1CON(C)C1=O` (mixture of isomers) [Compound A5] are 0%, 65% and 98%.
The corresponding values for `CCN1OCC(NC(=O)c2ccc(C3=NOC(c4cc(Cl)c(Cl)c(Cl)c4)(C(F)(F)F)C3)cc2C)C1=O` (mixture of isomers) [Compound A6] are 100%, 100% and 100%.
As for `CCN1OCC(NC(=O)c2ccc(C3=NOC(c4cc(Cl)c(Br)c(Cl)c4)(C(F)(F)F)C3)cc2C)C1=O` (mixture of isomers) [Compound A7], the Control/% was found to be 100% (rate 12.5 ppm), 100% (rate 25 ppm) and 100% (rate 50 ppm).
For `CCN1OCC(NC(=O)c2ccc(C3=NOC(c4cc(Cl)c(F)c(Cl)c4)(C(F)(F)F)C3)cc2C)C1=O` (mixture of isomers) [Compound A8], the Control/% (rate 12.5 ppm) was 100%, the Control/% (rate 25 ppm) came to 100% and the Control/% (rate 50 ppm) came out at 100%.
Turning to `CCN1OCC(NC(=O)c2ccc(C3=NOC(c4cc(C(F)(F)F)c(Cl)c(C(F)(F)F)c4)(C(F)(F)F)C3)cc2C)C1=O` (mixture of isomers) [Compound A10], the Control/% reads like this: (rate 12.5 ppm) 100%; (rate 25 ppm) 100%; (rate 50 ppm) 100%.
Compound `CCN1OCC(NC(=O)c2ccc(C3=NOC(c4cc(F)cc(Cl)c4)(C(F)(F)F)C3)cc2C)C1=O` (mixture of isomers) [Compound A11] gave a Control/% (rate 12.5 ppm) of 80%, a Control/% (rate 25 ppm) of 55% and a Control/% (rate 50 ppm) of 100%.
The corresponding values for `CCN1OCC(NC(=O)c2ccc(C3=NOC(c4cc(Cl)cc(Cl)c4)(C(F)(F)F)C3)cc2C)C1=O` (mixture of isomers) [Compound A18] are 100%, 100% and 100%.
The corresponding values for `Cc1cc(C2=NOC(c3cc(Cl)cc(Cl)c3)(C(F)(F)F)C2)ccc1C(=O)NC1CON(CC(F)(F)F)C1=O` (mixture of isomers) [Compound A19] are 100%, 100% and 100%.
The corresponding values for `Cc1cc(C2=NOC(c3cc(Cl)cc(Cl)c3)(C(F)(F)F)C2)ccc1C(=O)NC1CON(CC(F)F)C1=O` (mixture of isomers) [Compound A20] are 100%, 100% and 100%.
On to `CCN1OCC(NC(=O)c2ccc(C3=NOC(c4cc(Cl)c(F)c(Cl)c4)(C(F)(F)F)C3)cc2C)C1=O` (mixture of isomers) [Compound A21], for which the Control/% (rate 50 ppm) turned out to be 100%.
Regarding `Cc1cc(C2=NOC(c3cc(Cl)cc(Cl)c3)(C(F)(F)F)C2)ccc1C(=O)NC1CON(C)C1=O` (mixture of isomers) [Compound A22], the Control/% by setting is: (rate 12.5 ppm) 98%; (rate 25 ppm) 100%; (rate 50 ppm) 100%.
With `Cc1cc(C2=NOC(c3cc(Cl)c(Cl)c(Cl)c3)(C(F)(F)F)C2)ccc1C(=O)NC1CON(CC(F)(F)F)C1=O` (mixture of isomers) [Compound A23], the Control/% runs as follows: (rate 12.5 ppm) 90%; (rate 25 ppm) 98%; (rate 50 ppm) 100%.
Consider `CCN1OCC(NC(=O)c2ccc(C3=NCC(c4cc(Cl)cc(Cl)c4)(C(F)(F)F)C3)cc2C)C1=O` (mixture of isomers) [Compound B1], for which the Control/% is, setting by setting: (rate 12.5 ppm) 0%; (rate 25 ppm) 78%; (rate 50 ppm) 90%.
For `CCN1OCC(NC(=O)c2ccc(C3=COC(c4cc(Cl)cc(Cl)c4)(C(F)(F)F)C3)cc2C)C1=O` (mixture of isomers) [Compound C1], in that order: 0%, 15% and 95%.
As for `Cc1cc(C2=NO[C@@](c3cc(Cl)cc(Cl)c3)(C(F)(F)F)C2)ccc1C(=O)N[C@@H]1CON(CC(F)F)C1=O` [Compound A12], the Control/% came to 100% (rate 12.5 ppm), 100% (rate 25 ppm) and 100% (rate 50 ppm).
Take `Cc1cc(C2=NO[C@@](c3cc(Cl)c(Cl)c(Cl)c3)(C(F)(F)F)C2)ccc1C(=O)N[C@@H]1CON(CC(F)(F)F)C1=O` [Compound A13]: the Control/% by setting is: (rate 12.5 ppm) 75%; (rate 25 ppm) 100%; (rate 50 ppm) 98%.
For `Cc1cc(C2=NO[C@@](c3cc(Cl)c(F)c(Cl)c3)(C(F)(F)F)C2)ccc1C(=O)N[C@@H]1CON(CC(F)(F)F)C1=O` [Compound A14], in that order: 100%, 100% and 100%.
For `CCN1OC[C@@H](NC(=O)c2ccc(C3=NO[C@@](c4cc(Cl)cc(C(F)(F)F)c4)(C(F)(F)F)C3)cc2C)C1=O` [Compound A15], in that order: 99%, 99% and 100%.
For `CCN1OC[C@@H](NC(=O)c2ccc(C3=NO[C@@](c4cc(Cl)cc(Br)c4)(C(F)(F)F)C3)cc2C)C1=O` [Compound A16], in that order: 95%, 97% and 98%.
Consider `Cc1cc(C2=NO[C@@](c3cc(Cl)cc(Br)c3)(C(F)(F)F)C2)ccc1C(=O)N[C@@H]1CON(CC(F)(F)F)C1=O` [Compound A17], for which the Control/% came out at 100% (rate 12.5 ppm), 100% (rate 25 ppm) and 100% (rate 50 ppm).
Consider `CCN1OC[C@@H](NC(=O)c2ccc(C3=NO[C@@](c4cc(Cl)c(F)c(Cl)c4)(C(F)(F)F)C3)cc2C)C1=O` [Compound A24], for which the Control/% by setting is: (rate 12.5 ppm) 75%; (rate 25 ppm) 85%; (rate 50 ppm) 98%.
For `CCN1OC[C@@H](NC(=O)c2ccc(C3=NO[C@@](c4cc(Cl)c(F)c(Cl)c4)(C(F)(F)F)C3)cc2Cl)C1=O` [Compound A25], in that order: 100%, 100% and 100%.
Turning to `CCN1OC[C@@H](NC(=O)c2ccc(C3=NO[C@@](c4cc(Cl)cc(C(F)(F)F)c4)(C(F)(F)F)C3)c3ccccc23)C1=O` [Compound A26], the Control/% stood at 83% (rate 12.5 ppm), 100% (rate 25 ppm) and 100% (rate 50 ppm).

The record behind these values is patent US9474279B2, “Methods of controlling insects” (Syngenta Participations AG, priority 2012, dated 2016).
